# Laboratory results as given in patent US9809616B2, “Pyrimidine nucleosides and their monophosphate prodrugs for the treatment of viral infections and cancer” (Cocrystal Pharma, Inc., priority 2012, dated 2017).
# Test system: Huh-7 cells
# Test: LC/MS analysis of nucleotides formed after 4 hr incubation of 50 μM drug in Huh-7 cells
# Assay type: in vitro ADME
# Settings: 4 hr incubation in Huh-7 cells
# Experimental: Shown below are two examples of the LC/MS qualitative analysis of nucleotides formed after 4 h incubation of 50 μM N^4-hydroxycytidine nucleosides and N^4-hydroxycytidine monophosphate prodrugs in Huh-7 cells.
compound,measurement,value
"C[C@@]1(O)[C@H](O)[C@@H](CO)O[C@H]1n1ccc(NO)nc1=O [Compound 37, 1-((2R,3R,4R,5R)-3,4-dihydroxy-5-(hydroxymethyl)-3-methyltetrahydrofuran-2-yl)-4-(hydroxyamino)pyrimidin-2(1H)-one]",Metabolite 2′-OH-2′-Me-U formed in cells,BLOQ
same,Metabolite 2′-OH-2′-Me-UDP formed in cells,BLOQ
same,Metabolite 2′-OH-2′-Me-UMP formed in cells,BLOQ
same,Metabolite 2′-OH-2′-Me-UTP formed in cells,BLOQ
same,Metabolite 36-DP formed in cells,BLOQ
same,Metabolite 36-MP formed in cells,BLOQ
same,Metabolite 36-TP formed in cells,BLOQ
same,Metabolite 36 formed in cells,BLOQ
same,Metabolite 37-DP formed in cells,BLOQ
same,Metabolite 37-MP formed in cells,BLOQ
same,Metabolite 37 in cells,BLOQ
"C[C@@]1(F)[C@H](O)[C@@H](CO)O[C@H]1n1ccc(NO)nc1=O [Compound 39, 1-((2R,3R,4R,5R)-3-fluoro-4-hydroxy-5-(hydroxymethyl)-3-methyltetrahydrofuran-2-yl)-4-(hydroxyamino)pyrimidin-2(1H)-one]",Metabolite 2′-F-2′-Me-U formed in cells,BLOQ
same,Metabolite 2′-F-2′-Me-UDP formed in cells,BLOQ
same,Metabolite 2′-F-2′-Me-UMP formed in cells,BLOQ
same,Metabolite 38-MP formed in cells,BLOQ
same,Metabolite 38 formed in cells,BLOQ
same,Metabolite 39-DP formed in cells,BLOQ
same,Metabolite 39-MP formed in cells,BLOQ
same,Metabolite 39-TP formed in cells,BLOQ
"CCOC(=O)[C@H](C)NP(=O)(OC[C@H]1O[C@@H](n2ccc(NO)nc2=O)[C@](C)(O)[C@@H]1O)Oc1ccccc1 (stereo partly drawn) [Compound 44, (2S)-ethyl 2-(((((2R,3R,4R,5R)-3,4-dihydroxy-5-(4-(hydroxyamino)-2-oxopyrimidin-1(2H)-yl)-4-methyltetrahydrofuran-2-yl)methoxy)(phenoxy)phosphoryl)amino)propanoate]",Metabolite 2′-OH-2′-Me-U formed in cells,BLOQ
same,Metabolite 2′-OH-2′-Me-UDP formed in cells,BLOQ
same,Metabolite 2′-OH-2′-Me-UMP formed in cells,BLOQ
same,Metabolite 36-MP formed in cells,BLOQ
same,Metabolite 36 formed in cells,BLOQ
same,Metabolite 37 in cells,BLOQ
same,Metabolite 44 (prodrug) in cells,13.3 ± 1.7 pmol/10^6 cells
"CCOC(=O)[C@H](C)NP(=O)(OC[C@H]1O[C@@H](n2ccc(NO)nc2=O)[C@](C)(F)[C@@H]1O)Oc1ccccc1 (stereo partly drawn) [Compound 51, (2S)-ethyl 2-(((((2R,3R,4R,5R)-4-fluoro-3-hydroxy-5-(4-(hydroxyamino)-2-oxopyrimidin-1(2H)-yl)-4-methyltetrahydrofuran-2-yl)methoxy)(phenoxy)phosphoryl)amino)propanoate]",Metabolite 2′-F-2′-Me-U formed in cells,BLOQ
same,Metabolite 2′-F-2′-Me-UDP formed in cells,BLOQ
same,Metabolite 2′-F-2′-Me-UMP formed in cells,BLOQ
same,Metabolite 51 (prodrug) in cells,71.5 ± 2.3 pmol/10^6 cells
